{
  "source": "paper PMC8336721",
  "about": "(ACS chemical neuroscience, 2020)",
  "key": {"[1]": {"molecular_target": "T1, KOR (Homo sapiens, UniProt P41145)", "T1 sequence (P41145 whole entry)": "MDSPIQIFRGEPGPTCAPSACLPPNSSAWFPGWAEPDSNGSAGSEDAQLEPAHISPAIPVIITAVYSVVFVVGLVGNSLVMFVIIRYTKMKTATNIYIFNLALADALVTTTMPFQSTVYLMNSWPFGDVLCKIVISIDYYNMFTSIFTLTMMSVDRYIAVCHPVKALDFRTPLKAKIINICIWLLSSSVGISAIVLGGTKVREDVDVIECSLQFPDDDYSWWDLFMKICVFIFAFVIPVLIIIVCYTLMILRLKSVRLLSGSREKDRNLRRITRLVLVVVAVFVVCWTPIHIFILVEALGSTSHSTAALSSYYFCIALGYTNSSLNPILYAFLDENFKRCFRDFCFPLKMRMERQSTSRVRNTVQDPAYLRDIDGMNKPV", "assay": "Tango assay", "type": "cell-based"}, "[2]": {"test_system": "mice", "assay": "Compound 48/80 scratching test", "type": "in vivo"}, "[3]": {"test_system": "mice", "assay": "Rotarod test", "type": "in vivo"}, "[4]": {"molecular_target": "MOR (Rattus norvegicus, UniProt P33535)", "sequence (P33535 whole entry)": "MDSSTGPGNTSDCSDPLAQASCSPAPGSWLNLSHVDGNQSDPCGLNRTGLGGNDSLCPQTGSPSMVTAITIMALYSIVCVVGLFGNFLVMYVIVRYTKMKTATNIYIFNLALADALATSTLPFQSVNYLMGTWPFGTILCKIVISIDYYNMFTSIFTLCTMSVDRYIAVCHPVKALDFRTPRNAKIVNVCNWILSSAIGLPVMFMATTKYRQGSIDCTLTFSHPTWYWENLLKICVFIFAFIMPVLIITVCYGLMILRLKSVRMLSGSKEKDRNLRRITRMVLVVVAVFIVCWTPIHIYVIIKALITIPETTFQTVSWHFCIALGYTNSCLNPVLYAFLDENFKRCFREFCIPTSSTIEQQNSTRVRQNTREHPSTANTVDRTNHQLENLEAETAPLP", "assay": "[35S]GTPγS binding to membranes of CHO cells stably expressing the MOR", "type": "biochemical", "settings": "for Maximal Effect, MOR: % of maximal [35S]GTPγS binding of reference full agonist DAMGO; for agonist type at the MOR: [35S]GTPγS binding"}, "[5]": {"test_system": "mice", "assay": "Novelty-induced locomotor activity", "type": "in vivo", "settings": "1, 3, 5 mg/kg s.c., 0–30 min post-injection"}, "[6]": {"molecular_target": "T1, KOR", "assay": "GloSensor cAMP assay", "type": "cell-based", "settings": "for more potent than U50,488H, inhibition of cAMP accumulation: EC50 ratio vs U50,488H"}, "[7]": {"test_system": "mice", "assay": "Conditioned place aversion"}, "[8]": {"molecular_target": "T1, KOR", "assay": "[35S]GTPγS binding to membranes of CHO cells stably expressing the KOR", "type": "biochemical", "settings": "for Maximal Effect, KOR: % of maximal [35S]GTPγS binding of reference full agonist (−)U50,488H"}, "[9]": {"molecular_target": "NOR (Homo sapiens, UniProt P41146)", "sequence (P41146 whole entry)": "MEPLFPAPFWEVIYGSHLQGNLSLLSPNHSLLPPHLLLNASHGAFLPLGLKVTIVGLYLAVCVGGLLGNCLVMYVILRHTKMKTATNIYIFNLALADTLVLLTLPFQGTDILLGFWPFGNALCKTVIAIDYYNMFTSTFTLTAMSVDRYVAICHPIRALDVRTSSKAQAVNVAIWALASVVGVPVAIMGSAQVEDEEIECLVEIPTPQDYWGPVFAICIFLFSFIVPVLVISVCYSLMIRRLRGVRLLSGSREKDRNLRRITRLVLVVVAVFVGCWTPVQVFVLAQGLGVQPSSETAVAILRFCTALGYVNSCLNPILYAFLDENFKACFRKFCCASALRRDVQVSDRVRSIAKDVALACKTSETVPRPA", "assay": "[35S]GTPγS binding to membranes of CHO cells stably expressing the NOR", "type": "biochemical", "settings": "for agonist type at the NOR: [35S]GTPγS binding, relatively low potency"}, "[10]": {"test_system": "mice", "assay": "Formalin test", "type": "in vivo", "settings": "s.c. 5 min before formalin, licking time phase II"}, "[11]": {"molecular_target": "DOR (Mus musculus, UniProt P32300)", "sequence (P32300 whole entry)": "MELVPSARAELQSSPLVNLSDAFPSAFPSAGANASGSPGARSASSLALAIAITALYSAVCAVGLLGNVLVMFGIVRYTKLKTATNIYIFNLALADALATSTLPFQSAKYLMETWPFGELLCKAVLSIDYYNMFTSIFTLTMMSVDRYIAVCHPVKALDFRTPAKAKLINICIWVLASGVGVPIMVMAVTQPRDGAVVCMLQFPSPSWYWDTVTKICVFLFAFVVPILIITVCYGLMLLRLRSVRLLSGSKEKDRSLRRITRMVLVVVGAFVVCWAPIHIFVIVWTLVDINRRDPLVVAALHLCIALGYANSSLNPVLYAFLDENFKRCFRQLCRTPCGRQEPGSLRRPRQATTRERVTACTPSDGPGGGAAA", "assay": "[35S]GTPγS binding to membranes of CHO cells stably expressing the DOR", "type": "biochemical", "settings": "for agonist type at the DOR: [35S]GTPγS binding, relatively low potency"}, "[12]": {"test_system": "human KOR", "assay": "G protein bias from RAi of GloSensor cAMP and Tango assays", "type": "cell-based", "settings": "RAi−G divided by RAi−b, U50,488H as balanced agonist"}, "[13]": {"test_system": "mice", "settings": "cited from earlier work"}, "[14]": {"test_system": "mice", "settings": "cited from earlier work", "remark": "listed apart in the source"}, "[15]": {"test_system": "mice", "settings": "late phase of the formalin test; cited from earlier work"}, "[16]": {"test_system": "P-glycoprotein", "settings": "cited from earlier work"}, "[17]": {"test_system": "mice", "settings": "nalfurafine up to 20 μg/kg, U50,488 5 mg/kg; cited from earlier work"}, "[18]": {"test_system": "mouse", "settings": "mouse tail flick test; cited from earlier work"}},
  "note": "“And” between values parts separate entries of the source, which are not always exact repeats. Equal entries are not always repeated. Where two headings read alike, the source gives them in different places.",
  "data": [
    {"smiles": "CN(C(=O)/C=C/c1ccoc1)[C@@H]1CC[C@@]2(O)[C@H]3Cc4cccc5c4[C@@]2(CCN3CC2CC2)[C@H]1O5", "note": "[42B]", "values": [
      {"measurement": "lower potency for β-arrestin recruitment than U50,488H", "setting": "[1]; EC50 ratio vs U50,488H", "result": "~ 2 fold"},
      {"measurement": "lower potency for β-arrestin recruitment than nalfurafine", "setting": "[1]; EC50 ratio vs nalfurafine", "result": "~ 4 fold"},
      {"measurement": "EC50", "setting": "[1]; read-out: Tango assay EC50, β-arrestin2 recruitment, mean ± SEM n=3", "result": "3.22 ± 0.42", "unit": "nM"},
      {"measurement": "Tango assay Emax", "setting": "[1]; β-arrestin2 recruitment, mean ± SEM n=3, % printed in b16 only", "result": "116.8±1.0", "unit": "%"},
      {"measurement": "effect of norBNI pretreatment on anti-scratch activity", "setting": "[2]; norBNI 20 mg/kg i.p. 20 h before 42B 3 mg/kg", "result": "eliminated the anti-scratch activity"},
      {"measurement": "A50, compound 48/80-induced scratching", "setting": "[2]; s.c. 20 min before compound 48/80, bouts counted 30 min, mice", "result": 2.82, "unit": "mg/kg"},
      {"measurement": "rotarod performance at 1 mg/kg", "setting": "[3]; 1 mg/kg, at 10 min", "result": "significant effect"},
      {"measurement": "rotarod performance", "setting": "[3]; 1, 3, 5 mg/kg s.c., tested 10, 20, 30, 40 min", "result": "dose-dependently caused performance impairment"},
      {"measurement": "time of peak effect in rotarod test", "setting": "[3]; among time points tested 10–40 min", "result": 10, "unit": "min"},
      {"measurement": "time of return to control level in rotarod test", "setting": "[3]; mouse, in vivo", "result": 40, "unit": "min"},
      {"measurement": "Maximal Effect, MOR", "setting": "[4]", "result": "49% and 48.87 ± 2.45%"},
      {"measurement": "agonist type at the MOR", "setting": "[4]", "result": "partial agonists"},
      {"measurement": "novelty-induced hyperlocomotion", "setting": "[5]", "result": "significant and dose-dependent reduction"},
      {"measurement": "more potent than U50,488H, inhibition of cAMP accumulation", "setting": "[6]", "result": "~ 2 fold"},
      {"measurement": "GloSensor cAMP assay Emax", "setting": "[6]; maximal degree of inhibition, mean ± SEM n=3", "result": "74.40±1.68", "unit": "%"},
      {"measurement": "EC50", "setting": "[6]; read-out: GloSensor cAMP assay EC50, inhibition of cAMP, mean ± SEM n=3", "result": "0.82 ± 0.18", "unit": "nM"},
      {"measurement": "CPA", "setting": "[7]; 1, 3, 5 mg/kg s.c., 6 days conditioning", "result": "did not cause CPA"},
      {"measurement": "effect of MOR blockade by naloxone on lack of CPA", "setting": "[7]; naloxone 1 mg/kg s.c. 25 min before 42B 3 mg/kg", "result": "did not affect its lack of CPA"},
      {"measurement": "Maximal Effect, KOR", "setting": "[8]", "result": "91% and 91.34 ± 1.15%"},
      {"measurement": "agonist type at the KOR", "setting": "[8]; [35S]GTPγS binding", "result": "full agonists"},
      {"measurement": "EC50", "setting": "[8]; read-out: EC50, KOR, [35S]GTPγS binding, CHO membranes, 100 mM NaCl, mean ± SEM n=3–4", "result": "25.6 ± 1.5", "unit": "nM"},
      {"measurement": "agonist type at the NOR", "setting": "[9]", "result": "full agonism"},
      {"measurement": "A50, formalin test", "setting": "[10]", "result": 2.08, "unit": "mg/kg"},
      {"measurement": "Maximal Effect, DOR", "setting": "[11]; % of maximal [35S]GTPγS binding of reference full agonist DPDPE", "result": "134.7 ± 3.4", "unit": "%"},
      {"measurement": "agonist type at the DOR", "setting": "[11]", "result": "full agonism"}
    ]},
    {"smiles": "CN(C(=O)/C=C/c1ccoc1)[C@@H]1CC[C@@]2(O)[C@H]3Cc4ccc(O)c5c4[C@@]2(CCN3CC2CC2)[C@H]1O5", "note": "[Nalfurafine]", "values": [
      {"measurement": "G Biased factor (95% CI)", "setting": "[12]", "result": "4.49 (1.79–11.1)"},
      {"measurement": "G Biased factor (95% CI)", "setting": "[12]; listed as nalfurafine", "result": 4.49},
      {"measurement": "A50, compound 48/80-induced scratching", "setting": "[13]", "result": 8.0, "unit": "µg/kg"},
      {"measurement": "Emax", "setting": "[1]; HEK293, read-out: Tango assay Emax", "result": "108 ± 2.6", "unit": "%"},
      {"measurement": "more potent than 42B in the anti-scratch test", "setting": "[2]; A50 ratio nalfurafine vs 42B", "result": "about 340 x"},
      {"measurement": "rotarod performance", "setting": "[14]; 20 μg/kg, at 30 min and 40 min following injection", "result": "small, yet significant, effects"},
      {"measurement": "time of peak effect in rotarod test", "setting": "[14]; slight lowering effect", "result": 30, "unit": "min"},
      {"measurement": "EC50", "setting": "[4]", "result": "3.11 ± 0.63", "unit": "nM"},
      {"measurement": "Maximal Effect, MOR", "setting": "[4]", "result": "73.88 ± 2.93", "unit": "%"},
      {"measurement": "agonist type at the MOR", "setting": "[4]", "result": "partial agonists"},
      {"measurement": "A50, formalin test", "setting": "[15]", "result": 5.8, "unit": "µg/kg"},
      {"measurement": "P-glycoprotein substrate", "setting": "[16]", "result": "P-glycoprotein substrate"},
      {"measurement": "more potent than U50,488H, inhibition of cAMP accumulation", "setting": "[6]", "result": "~ 9 fold"},
      {"measurement": "Emax", "setting": "[6]; HEK-293T, read-out: GloSensor cAMP assay Emax", "result": "69.8 ± 1.53", "unit": "%"},
      {"measurement": "more potent than 42B in inhibition of forskolin-stimulated adenylyl cyclase (Glosensor assay)", "setting": "[6]; nalfurafine vs 42B", "result": "~ 5 X"},
      {"measurement": "Maximal Effect, KOR", "setting": "[8]", "result": "90.90 ± 3.25", "unit": "%"},
      {"measurement": "agonist type at the KOR", "setting": "[8]; [35S]GTPγS binding", "result": "full agonists"},
      {"measurement": "potency at the KOR higher than that of 42B", "setting": "[8]; [35S]GTPγS binding EC50 ratio, nalfurafine vs 42B", "result": "~ 250 fold"},
      {"measurement": "EC50", "setting": "[9]", "result": "280 ± 17.7", "unit": "nM"},
      {"measurement": "agonist type at the NOR", "setting": "[9]", "result": "full agonism"},
      {"measurement": "Emax", "setting": "[9]; read-out: Maximal Effect, NOR", "result": "120 ± 2.2", "unit": "%"},
      {"measurement": "CPA", "setting": "[17]", "result": "did not produce CPA"},
      {"measurement": "agonist type at the DOR", "setting": "[11]", "result": "full agonism"},
      {"measurement": "Emax", "setting": "[11]; read-out: Maximal Effect, DOR", "result": "129 ± 3.2", "unit": "%"}
    ]},
    {"smiles": "C=CCN1CC[C@]23c4c5ccc(O)c4O[C@H]2C(=O)CC[C@@]3(O)[C@H]1C5", "note": "[naloxone]", "values": [
      {"measurement": "CPA or CPP in the naloxone experiment", "setting": "[7]; naloxone 1 mg/kg alone, U50,488 5 mg/kg as positive control", "result": "Neither naloxone (1 mg/kg) alone nor a combination of naloxone (1 mg/kg) and 42B (3 mg/kg) caused CPA or CPP"},
      {"measurement": "more potent in antagonizing morphine- than U50,488- or spiradoline-induced antinociception", "setting": "[18]", "result": "20–36 times"}
    ]},
    {"smiles": "Oc1ccc2c3c1O[C@H]1c4[nH]c5c(c4C[C@@]4(O)[C@@H](C2)N(CC2CC2)CC[C@]314)C[C@@]1(O)[C@H]2Cc3ccc(O)c4c3[C@@]1(CCN2CC1CC1)[C@H]5O4", "note": "[norBNI, nor-binaltorphimine]", "values": [
      {"measurement": "effect on compound 48/80-induced scratching, alone", "setting": "[2]; norBNI 20 mg/kg i.p. 20 h before saline", "result": "no effects"}
    ]}
  ]
}
